Results: patent US20240277700A1, “COMPOSITIONS AND METHODS FOR TREATING AND PREVENTING INTERSTITIAL CYSTITIS” (Hista RX LLC, priority 2021, published 2024)

Legend:
[1] = tested on: patient with interstitial cystitis; assay: Example 2: case report, patient with chronic interstitial cystitis and IBS-diarrhea; conditions: person; before the combination
[2] = tested on: patient with painful bladder syndrome; assay: Example 3: case report, patient with chronic painful bladder syndrome; type: in vivo, human; conditions: person; prior treatment without the combination
patients with IC = conditions: cited from earlier work

COc1ccc2nc([S@@+]([O-])Cc3ncc(C)c(OC)c3C)[nH]c2c1 [Esomeprazole]
resolution of urologic and/or gastrointestinal conditions by previous medications [1]: without resolution

Sucralfate
resolution of urologic and/or gastrointestinal conditions by previous medications [1]: without resolution

OCCOCCN1CCN(C(c2ccccc2)c2ccc(Cl)cc2)CC1 (centres unmarked) [Hydroxyzine]
symptomatic relief by prior treatment [2]: insufficient
benefit in the treatment of IC (patients with IC; monotherapy): some limited benefit

CN/C(=N/CCSCc1nc[nH]c1C)NC#N [cimetidine]
symptomatic relief of IC (patients with IC; monotherapy 300 mg bid (600 mg daily) for one month, case series of 9 patients): effective
